Measurements: the kinase profiling compilation of Christmann-Franck et al. (2016)
“And” between values parts separate entries of the source, which are not always exact repeats. Equal entries are not always repeated.

Key:
Conditions in all cases: compound 10.0 µM
MAP3K7 (human) = MAP3K7 (human) (UniProt O43318)
FGR (human) = FGR (human) (UniProt P09769)
CDC42BPA (human) = CDC42BPA (human) (UniProt Q5VT25)
NEK11 (human) = NEK11 (human) (UniProt Q8NG66)
PAK7 (human) = PAK7 (human) (UniProt Q9P286)
Chain of PAK7 (human) (Q9P286 whole entry, looked up): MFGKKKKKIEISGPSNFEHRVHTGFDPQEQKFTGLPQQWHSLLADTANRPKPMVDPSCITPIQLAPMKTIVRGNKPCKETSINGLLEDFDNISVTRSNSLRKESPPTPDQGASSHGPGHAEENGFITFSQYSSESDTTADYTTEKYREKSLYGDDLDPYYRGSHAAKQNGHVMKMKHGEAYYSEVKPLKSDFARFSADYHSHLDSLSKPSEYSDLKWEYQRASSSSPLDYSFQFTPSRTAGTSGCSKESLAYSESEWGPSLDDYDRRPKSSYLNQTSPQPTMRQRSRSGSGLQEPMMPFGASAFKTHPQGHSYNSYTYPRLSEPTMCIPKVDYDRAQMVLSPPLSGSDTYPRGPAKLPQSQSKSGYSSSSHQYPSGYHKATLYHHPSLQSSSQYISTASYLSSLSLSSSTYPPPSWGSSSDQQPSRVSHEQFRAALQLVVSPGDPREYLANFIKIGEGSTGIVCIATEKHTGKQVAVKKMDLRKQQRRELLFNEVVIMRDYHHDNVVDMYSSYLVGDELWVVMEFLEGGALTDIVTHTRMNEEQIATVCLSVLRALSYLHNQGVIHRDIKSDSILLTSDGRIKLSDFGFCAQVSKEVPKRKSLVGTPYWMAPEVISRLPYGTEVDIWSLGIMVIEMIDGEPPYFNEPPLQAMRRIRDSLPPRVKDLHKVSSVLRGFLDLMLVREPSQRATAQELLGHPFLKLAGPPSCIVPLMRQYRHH

CHEK2 (human) = CHEK2 (human) (UniProt O96017)
MYLK2 (human) = MYLK2 (human) (UniProt Q9H1R3)
MARK1 (human) = MARK1 (human) (UniProt Q9P0L2)
INSRR (human) = INSRR (human) (UniProt P14616)
MAP2K1 (human) = MAP2K1 (human) (UniProt Q02750)
JAK1 JH1 JH2 (human) = JAK1 JH1 JH2 (human) (UniProt P23458)
EGFR (human) = EGFR (human) (UniProt P00533)
MST4 (human) = MST4 (human) (UniProt Q9P289)
MAPK11 (human) = MAPK11 (human) (UniProt Q15759)
MAP3K11 (human) = MAP3K11 (human) (UniProt Q16584)
CAMK4 (human) = CAMK4 (human) (UniProt Q16566)
ERBB4 (human) = ERBB4 (human) (UniProt Q15303)
MAPKAPK5 (human) = MAPKAPK5 (human) (UniProt Q8IW41)
PRKD1 (human) = PRKD1 (human) (UniProt Q15139)
IRAK4 (human) = IRAK4 (human) (UniProt Q9NWZ3)
RPS6KB2 (human) = RPS6KB2 (human) (UniProt Q9UBS0)
MET (human) = MET (human) (UniProt P08581)
DCLK2 (human) = DCLK2 (human) (UniProt Q8N568)
AKT3 (human) = AKT3 (human) (UniProt Q9Y243)
IRAK1 (human) = IRAK1 (human) (UniProt P51617)
PDGFRB (human) = PDGFRB (human) (UniProt P09619)
EPHB1 (human) = EPHB1 (human) (UniProt P54762)
Chain of EPHB1 (human) (P54762 whole entry, looked up): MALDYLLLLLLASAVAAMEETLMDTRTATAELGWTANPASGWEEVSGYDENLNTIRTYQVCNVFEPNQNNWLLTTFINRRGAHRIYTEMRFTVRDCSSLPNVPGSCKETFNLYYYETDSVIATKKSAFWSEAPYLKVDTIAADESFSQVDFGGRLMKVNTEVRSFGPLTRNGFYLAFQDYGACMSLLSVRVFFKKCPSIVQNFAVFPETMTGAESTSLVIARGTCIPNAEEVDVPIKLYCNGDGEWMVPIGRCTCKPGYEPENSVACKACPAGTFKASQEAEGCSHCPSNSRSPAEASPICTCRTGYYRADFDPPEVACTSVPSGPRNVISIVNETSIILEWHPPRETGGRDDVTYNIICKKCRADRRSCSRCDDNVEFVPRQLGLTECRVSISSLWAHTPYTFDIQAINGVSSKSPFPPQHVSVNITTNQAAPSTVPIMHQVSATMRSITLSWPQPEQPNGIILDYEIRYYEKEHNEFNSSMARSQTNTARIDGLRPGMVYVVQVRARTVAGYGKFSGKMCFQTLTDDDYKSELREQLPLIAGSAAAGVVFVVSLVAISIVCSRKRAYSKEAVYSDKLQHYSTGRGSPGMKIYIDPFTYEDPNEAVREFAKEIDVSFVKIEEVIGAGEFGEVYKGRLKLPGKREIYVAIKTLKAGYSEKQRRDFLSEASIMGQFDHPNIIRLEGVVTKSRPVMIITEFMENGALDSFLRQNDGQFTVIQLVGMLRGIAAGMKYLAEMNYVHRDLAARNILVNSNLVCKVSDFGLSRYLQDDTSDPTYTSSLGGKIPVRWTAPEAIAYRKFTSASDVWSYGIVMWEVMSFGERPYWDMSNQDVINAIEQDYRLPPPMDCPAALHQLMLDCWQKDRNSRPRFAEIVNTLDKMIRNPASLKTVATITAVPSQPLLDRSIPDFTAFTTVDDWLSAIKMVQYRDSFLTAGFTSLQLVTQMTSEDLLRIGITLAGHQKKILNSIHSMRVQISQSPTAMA

AURKC (human) = AURKC (human) (UniProt Q9UQB9)
ULK1 (human) = ULK1 (human) (UniProt O75385)
CAMK1G (human) = CAMK1G (human) (UniProt Q96NX5)
DYRK2 (human) = DYRK2 (human) (UniProt Q92630)
LCK (human) = LCK (human) (UniProt P06239)
PRKG1 (human) = PRKG1 (human) (UniProt Q13976)
Chain of PRKG1 (human) (Q13976 whole entry, looked up): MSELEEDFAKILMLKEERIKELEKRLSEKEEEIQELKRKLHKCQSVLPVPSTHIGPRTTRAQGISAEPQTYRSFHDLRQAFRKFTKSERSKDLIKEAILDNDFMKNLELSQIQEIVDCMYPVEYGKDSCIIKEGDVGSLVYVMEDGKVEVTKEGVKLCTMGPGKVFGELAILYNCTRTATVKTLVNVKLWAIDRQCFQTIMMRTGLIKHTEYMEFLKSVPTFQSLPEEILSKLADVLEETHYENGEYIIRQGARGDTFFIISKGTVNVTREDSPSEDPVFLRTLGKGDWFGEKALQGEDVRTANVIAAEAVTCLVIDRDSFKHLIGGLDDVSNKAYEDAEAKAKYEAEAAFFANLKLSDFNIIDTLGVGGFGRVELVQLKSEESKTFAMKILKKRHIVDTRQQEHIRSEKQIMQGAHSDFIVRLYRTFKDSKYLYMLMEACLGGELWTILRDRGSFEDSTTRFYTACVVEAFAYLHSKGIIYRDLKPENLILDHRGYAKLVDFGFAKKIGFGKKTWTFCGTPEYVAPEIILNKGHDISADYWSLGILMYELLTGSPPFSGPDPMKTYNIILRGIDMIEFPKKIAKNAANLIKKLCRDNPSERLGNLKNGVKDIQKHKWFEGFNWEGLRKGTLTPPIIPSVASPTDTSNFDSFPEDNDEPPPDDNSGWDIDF

PIM1 (human) = PIM1 (human) (UniProt P11309)
Chain of PIM1 (human) (P11309 whole entry, looked up): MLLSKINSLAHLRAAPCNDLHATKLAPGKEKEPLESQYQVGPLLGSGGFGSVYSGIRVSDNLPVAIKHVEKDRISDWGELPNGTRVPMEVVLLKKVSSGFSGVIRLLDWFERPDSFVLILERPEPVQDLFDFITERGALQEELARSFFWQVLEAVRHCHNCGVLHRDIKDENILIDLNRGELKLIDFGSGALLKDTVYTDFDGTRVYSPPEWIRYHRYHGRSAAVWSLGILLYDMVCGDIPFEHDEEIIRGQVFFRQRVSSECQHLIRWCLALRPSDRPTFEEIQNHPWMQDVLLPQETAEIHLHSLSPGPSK

CLK3 (human) = CLK3 (human) (UniProt P49761)
GSK3B (human) = GSK3B (human) (UniProt P49841)
DYRK3 (human) = DYRK3 (human) (UniProt O43781)
RPS6KB1 (human) = RPS6KB1 (human) (UniProt P23443)
ABL2 (human) = ABL2 (human) (UniProt P42684)
PNCK (human) = PNCK (human) (UniProt Q6P2M8)
GRK5 (human) = GRK5 (human) (UniProt P34947)
EPHA3 (human) = EPHA3 (human) (UniProt P29320)
RPS6KA3 KD1 KD2 (human) = RPS6KA3 KD1 KD2 (human) (UniProt P51812)
WEE1 (human) = WEE1 (human) (UniProt P30291)

Chain of CDC42BPA (human) (Q5VT25 whole entry, looked up): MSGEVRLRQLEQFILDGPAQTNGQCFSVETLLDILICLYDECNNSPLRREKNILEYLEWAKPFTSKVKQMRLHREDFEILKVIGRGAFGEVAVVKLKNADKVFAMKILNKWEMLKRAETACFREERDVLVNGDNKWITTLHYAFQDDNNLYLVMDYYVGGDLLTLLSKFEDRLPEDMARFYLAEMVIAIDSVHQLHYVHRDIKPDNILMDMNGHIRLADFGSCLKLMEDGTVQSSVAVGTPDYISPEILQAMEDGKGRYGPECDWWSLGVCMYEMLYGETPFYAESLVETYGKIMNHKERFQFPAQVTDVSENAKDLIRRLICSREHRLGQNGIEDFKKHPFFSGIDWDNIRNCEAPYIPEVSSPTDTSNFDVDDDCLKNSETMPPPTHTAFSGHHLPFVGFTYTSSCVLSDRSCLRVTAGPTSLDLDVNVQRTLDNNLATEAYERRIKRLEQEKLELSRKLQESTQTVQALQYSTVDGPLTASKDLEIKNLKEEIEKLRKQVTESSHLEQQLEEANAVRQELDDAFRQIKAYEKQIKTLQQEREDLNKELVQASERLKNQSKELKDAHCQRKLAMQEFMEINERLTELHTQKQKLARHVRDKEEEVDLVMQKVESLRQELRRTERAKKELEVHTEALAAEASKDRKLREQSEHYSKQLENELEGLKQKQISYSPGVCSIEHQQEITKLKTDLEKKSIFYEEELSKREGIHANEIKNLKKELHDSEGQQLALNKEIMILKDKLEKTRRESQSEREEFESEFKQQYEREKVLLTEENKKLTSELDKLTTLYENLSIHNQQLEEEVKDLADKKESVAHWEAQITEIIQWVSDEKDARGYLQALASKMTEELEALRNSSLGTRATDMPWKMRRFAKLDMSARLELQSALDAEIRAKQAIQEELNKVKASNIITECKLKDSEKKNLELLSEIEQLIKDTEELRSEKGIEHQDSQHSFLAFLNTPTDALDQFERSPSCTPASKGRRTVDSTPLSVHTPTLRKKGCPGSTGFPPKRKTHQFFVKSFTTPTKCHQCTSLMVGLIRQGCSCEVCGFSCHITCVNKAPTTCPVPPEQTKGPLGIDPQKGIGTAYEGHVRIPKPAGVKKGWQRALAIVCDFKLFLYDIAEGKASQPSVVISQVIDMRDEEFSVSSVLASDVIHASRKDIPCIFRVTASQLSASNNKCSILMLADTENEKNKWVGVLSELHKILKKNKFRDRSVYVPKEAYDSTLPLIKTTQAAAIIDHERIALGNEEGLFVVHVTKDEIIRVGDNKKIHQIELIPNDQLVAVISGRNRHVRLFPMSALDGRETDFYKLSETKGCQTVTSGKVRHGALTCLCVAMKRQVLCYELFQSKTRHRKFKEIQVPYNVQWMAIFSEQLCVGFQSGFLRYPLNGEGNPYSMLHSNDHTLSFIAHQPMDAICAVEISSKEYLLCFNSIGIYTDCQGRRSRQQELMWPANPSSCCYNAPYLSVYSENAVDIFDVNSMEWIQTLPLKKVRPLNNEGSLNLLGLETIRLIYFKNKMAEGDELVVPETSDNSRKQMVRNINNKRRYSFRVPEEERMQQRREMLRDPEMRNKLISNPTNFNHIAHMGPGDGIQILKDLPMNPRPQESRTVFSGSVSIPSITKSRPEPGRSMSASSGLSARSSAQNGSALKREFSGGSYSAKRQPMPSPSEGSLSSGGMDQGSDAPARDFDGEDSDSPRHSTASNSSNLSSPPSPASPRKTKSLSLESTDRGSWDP
Chain of MAP3K7 (human) (O43318 whole entry, looked up): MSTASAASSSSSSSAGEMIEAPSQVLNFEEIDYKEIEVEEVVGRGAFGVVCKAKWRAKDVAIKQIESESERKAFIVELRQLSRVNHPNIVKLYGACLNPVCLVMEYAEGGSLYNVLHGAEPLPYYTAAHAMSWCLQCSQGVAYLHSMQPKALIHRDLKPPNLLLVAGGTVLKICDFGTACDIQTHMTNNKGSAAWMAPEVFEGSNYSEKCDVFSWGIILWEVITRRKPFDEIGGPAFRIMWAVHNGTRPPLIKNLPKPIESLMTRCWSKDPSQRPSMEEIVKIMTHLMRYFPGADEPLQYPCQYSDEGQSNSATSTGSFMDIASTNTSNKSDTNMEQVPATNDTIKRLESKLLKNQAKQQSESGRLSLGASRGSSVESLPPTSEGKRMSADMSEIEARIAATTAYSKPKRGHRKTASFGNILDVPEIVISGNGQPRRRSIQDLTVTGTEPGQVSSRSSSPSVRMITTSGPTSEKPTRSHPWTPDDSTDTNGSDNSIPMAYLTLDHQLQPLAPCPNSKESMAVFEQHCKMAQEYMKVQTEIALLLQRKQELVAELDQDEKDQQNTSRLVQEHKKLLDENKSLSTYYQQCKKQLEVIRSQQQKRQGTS

residual activity (MAP3K7 (human)): 106% | residual activity (FGR (human)): 91% | residual activity (CDC42BPA (human)): 100% | residual activity (NEK11 (human)): 107% | residual activity (PAK7 (human)): 102% | residual activity (CHEK2 (human)): 71% | residual activity (MYLK2 (human)): 96.5% | residual activity (MARK1 (human)): 95.5% | residual activity (INSRR (human)): 88% | residual activity (MAP2K1 (human)): 102% | residual activity (JAK1 JH1 JH2 (human)): 97.5% | residual activity (EGFR (human)): 96.5% | residual activity (MST4 (human)): 98% | residual activity (MAPK11 (human)): 102% | residual activity (MAP3K11 (human)): 95% | residual activity (CAMK4 (human)): 87.5% | residual activity (ERBB4 (human)): 93.5% | residual activity (MAPKAPK5 (human)): 86% | residual activity (PRKD1 (human)): 100% | residual activity (IRAK4 (human)): 107% | residual activity (RPS6KB2 (human)): 92% | residual activity (MET (human)): 128% | residual activity (DCLK2 (human)): 104% | residual activity (AKT3 (human)): 94% | residual activity (IRAK1 (human)): 97% | residual activity (PDGFRB (human)): 102% | residual activity (EPHB1 (human)): 90.5% | residual activity (AURKC (human)): 101% | residual activity (ULK1 (human)): 98% | residual activity (CAMK1G (human)): 84% | residual activity (DYRK2 (human)): 204% | residual activity (LCK (human)): 99% | residual activity (PRKG1 (human)): 95% and 90.5% | residual activity (PIM1 (human)): 102% | residual activity (CLK3 (human)): 86% | residual activity (GSK3B (human)): 96% | residual activity (DYRK3 (human)): 96.5% | residual activity (RPS6KB1 (human)): 97% | residual activity (ABL2 (human)): 88% | residual activity (PNCK (human)): 88% | residual activity (GRK5 (human)): 101% | residual activity (EPHA3 (human)): 98% | residual activity (RPS6KA3 KD1 KD2 (human)): 90.5% | residual activity (WEE1 (human)): 100%
Structure (SMILES): CC[C@H](C)n1cc(C)c2c(C(=O)NCc3c(C)cc(C)[nH]c3=O)cc(-c3ccc(N4CCNCC4)nc3)cc21
